Tests used:
[1] = system: L. (L.) infantum promastigotes; assay: In vitro activity on L. (L.) infantum promastigotes, counting viable parasites; format: cell-based, Leishmania (Leishmania) infantum; conditions: for IC50: Leishmania infantum, 72 h, 28 °C, read-out: L. (L) infantum promastigotes IC50 ± SD; for L. (L) infantum promastigotes SI: selectivity index CC50/IC50
Protocol: (§1) Epimastigotes of T. cruzi and promastigotes forms of L. […] The inhibition of parasite growth was microscopically determined by counting viable (live) parasites in a haemocytometer using yellow eosin as vital dye; live parasites (uncolored) and dead (orange) were counted. All of the experiments were performed with parasites in their logarithmic phase of growth. […] Negative controls were used without the drug (culture medium alone) in each experiment. […] The data were calculated by linear regression using the software ([…]; GO Business Solution, Guildford, UK). The selectivity index (SI) was calculated dividing CC50/IC50. Each experiment was repeated twice and the values represent the results of one representative experiment. […] The analysis to determine the statistical differences in biological activity was performed using the analysis of variance (ANOVA) and the Bonferroni post-test. We also performed Student's t test for comparison between the two variables, using GraphPad Prism software version 5.03.

[2] = system: T. cruzi epimastigotes; assay: In vitro activity on T. cruzi epimastigotes, counting viable parasites; format: cell-based, Trypanosoma cruzi; conditions: for IC50: Trypanosoma cruzi, 72 h, 28 °C, read-out: T. cruzi epimastigotes IC50 ± SD; for T. cruzi epimastigotes SI: selectivity index CC50/IC50
Protocol: as §1

[3] = Mammalian cell toxicity, MTT, THP-1 cells; format: cell-based; conditions: human, THP-1 cells transformed into adherent macrophages with PMA, 72 h, MTT; for CC50 at 72 h: read-out: Mammalian cells THP-1 CC50 ± SD
Protocol: (§2) Vero cells and THP-1 cells transformed into adherent macrophages with PMA in 96 microwell plates where they were treated with compounds (0-350 μM) during 72 h at 37 °C, 5% CO2-95% air mixture. The viability of the cells was evaluated by using the tetrazolium-dye (MTT) colorimetric method. After incubation of the cells with the MTT (5mg/mL) reagent for 4 hours, DMSO was added. The samples were read using an ELISA plate reader at a wavelength of 580 nm. The amount of color produced is directly proportional to the number of viable cells. The percentage of cytotoxicity was calculated by the equation: cytotoxicity (%) = (OD control group-OD treatment group)/OD control group × 100 [31]. […] The data were calculated by linear regression using the software ([…]; GO Business Solution, Guildford, UK). The selectivity index (SI) was calculated dividing CC50/IC50. Each experiment was repeated twice and the values represent the results of one representative experiment. […] The analysis to determine the statistical differences in biological activity was performed using the analysis of variance (ANOVA) and the Bonferroni post-test. We also performed Student's t test for comparison between the two variables, using GraphPad Prism software version 5.03.

[4] = Mammalian cell toxicity, MTT, Vero cells; format: cell-based; conditions: African green monkey, Vero cells, 72 h, MTT; for CC50 at 72 h: read-out: Mammalian cells Vero CC50 ± SD
Protocol: as §2

[5] = system: Vero cells; assay: Mammalian cell toxicity, MTT, Vero cells; format: cell-based
Protocol: as §2

[6] = system: L. (L.) infantum intracellular amastigotes; assay: Intracellular amastigotes of L. (L.) infantum infecting THP-1 macrophages; format: cell-based, Leishmania (Leishmania) infantum
Protocol: (§3) For the amastigotes assays, adherent Vero cells or THP-1 macrophages (after transformation with 10 ng/mL PMA) were infected with tissue-derived trypomastigotes or stationary phase promastigotes, respectively, at a ratio of 10:1 and maintained in a 5% CO2-95% air mixture at 37 °C. After 24 h, infected cultures with >50% of infected cells were incubated with the compounds (from 3–300 μM) in a three-fold dilution series for 72 h. Drug activity was determined from the % of infected cells in treated and untreated cultures in fixed methanol and Giemsa stained preparations. Parasites’ assays were performed twice and each tested concentration was tested in triplicate.
(§4) Negative controls were used without the drug (culture medium alone) in each experiment.
(§5) The data were calculated by linear regression using the software (Msxlfit; GO Business Solution, Guildford, UK). The selectivity index (SI) was calculated dividing CC50/IC50. Each experiment was repeated twice and the values represent the results of one representative experiment. […] The analysis to determine the statistical differences in biological activity was performed using the analysis of variance (ANOVA) and the Bonferroni post-test. We also performed Student’s t test for comparison between the two variables, using GraphPad Prism software version 5.03. P values <0.05 were considered to be statistically significant.

[7] = system: L.(V.) panamensis intracellular amastigotes; assay: Intracellular amastigotes of L. (V.) panamensis in THP-1 macrophages; format: cell-based, Leishmania (Viannia) panamensis
Protocol: as §3, §4, §5

[8] = system: L. (L.) amazonensis intracellular amastigotes; assay: Intracellular amastigotes of L. (L.) amazonensis in THP-1 macrophages; format: cell-based, Leishmania (Leishmania) amazonensis
Protocol: as §3, §4, §5

[9] = system: T. cruzi intracellular amastigotes; assay: Intracellular amastigotes of T. cruzi in Vero cells; format: cell-based, Trypanosoma cruzi
Protocol: as §3, §4, §5

[10] = system: THP-1 cells; assay: Mammalian cell toxicity, MTT, THP-1 cells; format: cell-based
Protocol: as §2

Compound	IC50 [1]	L. (L) infantum promastigotes SI [1]	IC50 [2]	T. cruzi epimastigotes SI [2]	CC50 at 72 h [3]	CC50 at 72 h [4]	further results
O=C1CSC(c2cccnc2)N1CCN1C(=O)CSC1c1cccnc1 (stereo not shown) [6g]	> 250 µM	>1.0	> 250 µM	>1.0	> 250 µM	> 250 µM	–
O=C1CSC(c2ccncc2)N1CCN1C(=O)CSC1c1ccncc1 (stereo not shown) [6h]	> 250 µM	>1.0	> 250 µM	>1.0	> 250 µM	> 250 µM	–
O=C1CSC(c2ccccn2)N1CCCCN1C(=O)CSC1c1ccccn1 (stereo not shown) [6i]	> 250 µM	>1.0	> 250 µM	>1.0	> 250 µM	> 250 µM	–
O=C1CSC(c2cccnc2)N1CCCCN1C(=O)CSC1c1cccnc1 (stereo not shown) [6j]	> 250 µM	>1.0	235 ± 3.06 µM	0.32	> 250 µM	75.4 ± 1.8 µM	–
O=C1CSC(c2ccncc2)N1CCCCN1C(=O)CSC1c1ccncc1 (stereo not shown) [6k]	> 250 µM	>1.0	> 250 µM	>1.0	> 250 µM	> 250 µM	–
O=C(CCl)NCCNC(=O)CCl [7a]	176 ± 19 µM	>2.66	65.9 ± 5.54 µM	0.38	> 300 µM	25.7 ± 1.22 µM	CC90 at 72 h [4]: 49.5 ± 1.87 µM; toxicity on Vero cells, in words [5]: toxic
O=C(CCl)NCCCNC(=O)CCl [7b]	76.4 ± 1.05 µM	2.07	1.01 ± 0.13 µM	32.35	158 ± 4.53 µM	32.7 ± 6.56 µM	–
O=C(CCl)NCCCCNC(=O)CCl [7c]	132 ± 7.63 µM	2.76	54.2 ± 1.16 µM	0.68	366 µM	37.1 ± 0.45 µM	CC90 at 72 h [4]: 77.6 ± 3.15 µM; toxicity on Vero cells, in words [5]: toxic
C[C@@H]1[C@H](O)[C@@H](C)/C=C/C=C/C=C/C=C/C=C/C=C/C=C/[C@H](O[C@@H]2O[C@H](C)[C@@H](O)[C@H](N)[C@@H]2O)C[C@@H]2O[C@](O)(C[C@@H](O)C[C@@H](O)[C@H](O)CC[C@@H](O)C[C@@H](O)CC(=O)O[C@H]1C)C[C@H](O)[C@H]2C(=O)O [AmB, Amphotericin B, reference compound]	0.014 ± 0.001 µM	948.57	–	–	13.3 ± 1.72 µM	–	IC90 ([6]; Leishmania infantum, THP-1 macrophages, 72 h): 0.138 ± 0.023 µM; IC50 ([6]; Leishmania infantum, THP-1 macrophages, 72 h, 48.58% cells infected before treatment): 0.045 ± 0.007 µM; L. (L.) infantum intracellular amastigotes SI ([6]; selectivity index CC50/IC50): 360; IC90 ([7]; THP-1 macrophages, 72 h): 0.2 ± 0.002 µM; IC50 ([7]; THP-1 macrophages, 72 h, 78.3% cells infected before treatment): 0.032 ± 0.002 µM; L.(V.) panamensis intracellular amastigotes SI ([7]; selectivity index CC50/IC50): 420; IC90 ([8]; Leishmania amazonensis, THP-1 macrophages, 72 h): 0.2 ± 0.002 µM; IC50 ([8]; Leishmania amazonensis, THP-1 macrophages, 72 h, 58.6% cells infected before treatment): 0.082 ± 0.002 µM; L. (L.) amazonensis intracellular amastigotes SI ([8]; selectivity index CC50/IC50): 616
CC1CS(=O)(=O)CCN1/N=C/c1ccc([N+](=O)[O-])o1 (stereo not shown) [Nif, Nifurtimox, reference compound]	–	–	2.71 ± 0.05 µM	28.23	–	76.5 ± 3.2 µM	IC90 ([9]; Trypanosoma cruzi, Vero cells, 72 h): 10.2 ± 1.6 µM; IC50 ([9]; Trypanosoma cruzi, Vero cells, 72 h, 98.1% cells infected before treatment): 2.34 ± 0.83 µM; T. cruzi intracellular amastigotes SI ([9]; selectivity index CC50/IC50): 55
O=C(CCl)N(CCCCN(Cc1ccccc1)C(=O)CCl)Cc1ccccc1 [compound 8]	3.91 ± 0.01 µM	6.4	0.02 ± 0.004 µM	–	25.1 ± 0.35 µM	> 250 µM	activity on L. (L.) infantum promastigotes, in words ([1]; free-living form): active; activity on T. cruzi epimastigotes, in words ([2]; free-living form): active; CC90 at 72 h [3]: > 208 µM; toxicity on THP-1 cells, in words [10]: partially toxic

— article PMC3617668, “In Vitro Antileishmanial, Trypanocidal, and Mammalian Cell Activities of Diverse N,N′ -Dihetaryl Substituted Diamines and Related Compounds” (Scientia Pharmaceutica, 2012)
